Assays:
Experiment in all cases: qRT-PCR expression of induced resistance gene in pine tree callus
Type in all cases: cell-based
Conditions in all cases: 200 µg/mℓ, 24 hours
PR_2 family = tested on: PR_2 family
Procedure: (§1) For in vitro analysis of induced resistance, the expression of PR genes and other plant defense-related genes was determined, which are evolved in various defense mechanisms including induced resistance. The primers of sixteen induced resistance-related genes of pine tree used in this invention were listed in the below and elongation factor_1 alpha were used as a reference gene. [Table 4] The primer list of defense resistance-related genes
(§2) After the treatment with 200 µg / mℓ of candidates of the selected induced resistance material, expression of the induced resistance-related gene in pine callus was determined by qRT-PCR using the primer pairs of defense resistance-related genes in Table 4. As a candidate group of an induced resistance material in pine tree, acibenzolar-S-methyl (ASM), TDL (Tiadinil), ITL (Isotianil), PBZ (Probenzole), AZO (Azoxystrobin), VMA (Validamycin A), MeJA (Methyl jasmonate), BABA (DL-3-aminobutyric acid), 2,3-BDO (2,3-Butanediol), GABA (r-Aminobutyric acid), glucan (Glucan), ER (Ergosterol), and AZA (Azelaic acid) were used. For the in vitro analysis of the expression of induced resistance gene in pine callus, the selected induced resistance materials were applied with 500 µℓ of LM liquid medium on a surface of pine tree callus (100 mg) in 12-well microplate to give final concentration of 200 µg/mℓ. Then, the callus surface was sufficiently reacted for 24 hours with the candidate of pine tree induced resistance material by shaking at 50 rpm in a 25 °C shaking incubator under dark condition. RNAs were extracted from the callus after completion of the reaction with an induced resistance material, followed by synthesis of cDNAs. Then, by carrying out qRT-PCR, the expression of induced resistance genes was determined. [Table 5] Expression of induced resistance gene in pine tree callus by TDL, PBZ, ASM, ITL, AZO, VMA, glucan, and AZA
(§3) Based on the results of assay using young plants and gene expression by selected induce resistance materials, it seemed that acibenzolar-S-methyl had the most excellent effect. Thus, the following tests were carried out using acibenzolar-S-methyl only. Expression of the induced resistance genes at different culture time after the chemical treatment was examined. For the in vitro assay, LM medium containing pine tree callus was treated with acibenzolar-S-methyl at concentration of 200 µg / mℓ, followed by reaction for 1 day, 7 days, or 14 days in a 25°C shaking incubator under dark condition. RNAs were extracted from the callus after the reaction followed by synthesis of cDNAs. Then, by carrying out qRT-PCR, the expression of the induced resistance genes was determined. Depending on reaction time after the treatment, i.e., after 1 day, 7 days, or 14 days, the expression of the obtained induced resistance genes was examined. As a result of the in vitro callus assay depending on reaction time after the treatment with acibenzolar-S-methyl, the expression of the induced resistance-related genes is the highest at 1 day after the treatment with acibenzolar-S-methyl and gradually diminished over time, as it is shown in Table 7. In this regard, it is contemplated that the expression of genes acquired by acibenzolar-S-methyl is not maintained in highly expressed state until the pathogen invasion and just memorized with at minimum level so that the energy consumption by plant can be efficiently managed. [Table 7] Expression of induced resistance gene in pine tree callus by acibenzolar-S-methyl depending on reaction time
(§4) To have an in vitro assay according to different methods of treatment with acibenzolar-S-methyl, two separate treatment methods, i.e., surface treatment (spraying treatment) of pine tree callus and direct application of the induced resistance material to an LM medium containing pine tree callus, were performed. […]

Heat shock 70 = tested on: Heat shock 70
Procedure: as §1, §2, §3, §4

PR_5 family = tested on: PR_5 family
Procedure: as §1, §2, §3, §4

PR_10 family = tested on: PR_10 family
Procedure: as §1, §2, §3, §4

PR_9 family = tested on: PR_9 family
Procedure: as §1, §2, §3, §4

Hydroxyproline = tested on: Hydroxyproline
Procedure: as §1, §2, §3, §4

Extensin = tested on: Extensin
Procedure: as §1, §2, §3, §4

PR_4 family = tested on: PR_4 family
Procedure: as §1, §2, §3, §4

PR_1b family = tested on: PR_1b family
Procedure: as §1, §2, §3, §4

Metallothionein = tested on: Metallothionein
Procedure: as §1, §2, §3, §4

PR_3 family class 4 = tested on: PR_3 family class 4
Procedure: as §1, §2, §3, §4

PR_3 family class 1 = tested on: PR_3 family class 1
Procedure: as §1, §2, §3, §4

Xyloglucan = tested on: Xyloglucan
Procedure: as §1, §2, §3, §4

Antipeptide = tested on: Antipeptide
Procedure: as §1, §2, §3, §4

CC(O)C(C)O (centres unmarked) [2,3-BDO, 2,3-Butanediol]
Expression of induced resistance gene, PR_2 family (PR_2 family): 1.26 | Expression of induced resistance gene, Heat shock 70 (Heat shock 70): 1.29 | Expression of induced resistance gene, PR_5 family (PR_5 family): 1.13 | Expression of induced resistance gene, PR_10 family (PR_10 family): 0.86 | Expression of induced resistance gene, PR_9 family (PR_9 family): 1.22 | Expression of induced resistance gene, Hydroxyproline (Hydroxyproline): 0.83 | Expression of induced resistance gene, Extensin (Extensin): 1.07 | Expression of induced resistance gene, PR_4 family (PR_4 family): 1.41 | Expression of induced resistance gene, PR_1b family (PR_1b family): 4.36 | Expression of induced resistance gene, Metallothionein (Metallothionein): 2.53 | Expression of induced resistance gene, PR_3 family class 4 (PR_3 family class 4): 0.33 | Expression of induced resistance gene, PR_3 family class 1 (PR_3 family class 1): 2.78 | Expression of induced resistance gene, Xyloglucan (Xyloglucan): 1.13 | Expression of induced resistance gene, Antipeptide (Antipeptide): 1.31
